Data from US20050265999A1, “Modulation of 5-HT2 receptors as a treatment for cardiovascular diseases” (Myogen, Inc., priority 2003, published 2005).

Tests used:
HDAC5 = experiment: HDAC localization assay, GFP-HDAC5 in NRVM; format: cell-based, rat
Description: NRVM culture. For preparations of neonatal rat ventricular myocytes (NRVMs), hearts were removed from 10-20 newborn (1-2 days old) Sprague-Dawley rats. Isolated ventricles were pooled, minced and dispersed by three 20-min incubations at 37° C. in Ads buffer (116 mM NaCl, 20 mM HEPES, 10 mM NaH2PO4, 5.5 mM glucose, 5 mM KCl, 0.8 mM MgSO4, pH 7.4) containing collagenase Type II (65 units/ml, Worthington) and pancreatin (0.6 mg/ml, GibcoBRL). Dispersed cells were applied to a discontinuous gradient of 40.5% and 58.5% (v/v) Percoll (Amersham Biosciences), centrifuged, and myocytes collected from the interface layer. Myocyte preparations were pre-plated in Dulbecco's modified Eagle's medium (DMEM, Cellgro), supplemented with 10% (v/v) fetal bovine serum (FBS, HyClone), 4 mM L-glutamine and 1% penicillin/streptomycin for 1 hour at 37° C. to reduce fibroblast contamination, then plated at a density of 2.5×10^5 cells per well on 6-well tissue culture plates (or 10,000 cells/well on 96-well tissue culture plates) coated with a 0.2% (w/v) gelatin solution. After 24 hours in culture, myocyte preparations were transferred to serum-free maintenance medium (DMEM supplemented with 0.1% (v/v) Nutridoma (Roche), L-glutamine and penicillin/streptomycin). Where indicated, NRVM were treated with test compounds for a period of 48 h. For immunofluorescence applications, NRVM cultures were fixed, incubated with primary antibodies against alpha skeletal actin and atrial natriuretic factor, then incubated with rhodamine- or flurorescein-conjugated secondary antibodies. For HDAC localization assays, NRVM were plated to clear bottomed 96-well plates and infected overnight with recombinant adenovirus encoding HDAC5 fused to green fluorescent protein (multiplicity of infection=50). The next day, medium was replaced with serum-free maintenance medium for 4 hours, and test compounds added. After two hours, NRVM were fixed and imaged by fluorescent microscopy.

[1] = system: 28 kDa calcineurin-regulated MCIP1 protein; experiment: Western blot of MCIP1 protein in NRVM; format: cell-based, rat; details: NRVM stimulated with 18264 (1 μM), 48 h; CsA 500 nM; ketanserin, cyproheptadine 0.3 and 3 μM; 20068 1 and 3 μM
Description: (§1) NRVM culture. For preparations of neonatal rat ventricular myocytes (NRVMs), hearts were removed from 10-20 newborn (1-2 days old) Sprague-Dawley rats. Isolated ventricles were pooled, minced and dispersed by three 20-min incubations at 37° C. in Ads buffer (116 mM NaCl, 20 mM HEPES, 10 mM NaH2PO4, 5.5 mM glucose, 5 mM KCl, 0.8 mM MgSO4, pH 7.4) containing collagenase Type II (65 units/ml, Worthington) and pancreatin (0.6 mg/ml, GibcoBRL). Dispersed cells were applied to a discontinuous gradient of 40.5% and 58.5% (v/v) Percoll (Amersham Biosciences), centrifuged, and myocytes collected from the interface layer. Myocyte preparations were pre-plated in Dulbecco's modified Eagle's medium (DMEM, Cellgro), supplemented with 10% (v/v) fetal bovine serum (FBS, HyClone), 4 mM L-glutamine and 1% penicillin/streptomycin for 1 hour at 37° C. to reduce fibroblast contamination, then plated at a density of 2.5×10^5 cells per well on 6-well tissue culture plates (or 10,000 cells/well on 96-well tissue culture plates) coated with a 0.2% (w/v) gelatin solution. […]
Western Blots. […] Protein concentrations were determined by the bicinchoninic acid method (BCA Protein Assay, Pierce) with bovine serum albumin as a standard. Equivalent quantities of protein samples ([…]) were denatured in Laemmli buffer and resolved on Tris-glycine SDS-PAGE gels (4-20% acrylamide gradient, Invitrogen). […]

[2] = system: neonatal rat ventricular myocytes (NRVM); experiment: ANF secretion by competitive ELISA in NRVM; format: cell-based; details: NRVM stimulated with 18264 (1 μM), 48 h; antagonist up to 3 μM
Description: as §1
(§2) Hypertrophy and toxicity assays. Primary hypertrophy endpoints for NRVM included quantitation of: ANF secretion, total cellular protein and cell volume. ANF in media supernatants was quantitated by competitive ELISA using a monoclonal anti-ANF antibody (Biodesign) and a biotinylated ANF peptide (Phoenix Peptide). Total cellular protein was quantitated by standard Coomassie dye-binding assay; cells were lysed in protein assay reagent (BioRad) and absorbance at A595 was measured after 1 hour. […] After recovery by centrifugation, cell pellets were washed in PBS, resuspended in 10 ml IsoFlow electrolyte solution (Beckman-Coulter) and analyzed with a Z2 Coulter Particle Counter and Size Analyzer (Beckman-Coulter). Cytotoxicity was quantitated by measuring release of adenylate kinase (AK) from cultured NRVM into culture medium (ToxiLight kit, Cambrex).

5-HT1 = experiment: Radioligand receptor binding assay; details: 10 μM compound, n=2
Description: (§3) Receptor binding assays. Receptor binding assays were performed by MDS Pharma services. Assays included: Adenosine A1 (cat# 200510), Adenosine A2A (cat# 200610), Adenosine A3 (cat# 200720), Adrenergic alpha 1 (cat# 203500), Imidazoline 12 central (cat# 241000), Imidazoline I2 peripheral (cat# 241100), Inositol triphosphate (cat# 242500), Phorbol Ester (cat# 264500), 5-HT 2B (cat# 271700), and 5-HT 4 (cat# 272000).
(§4) • Summary of radioligand binding assays for 11 receptors. Data represent % inhibition of ligand binding in the presence of 10 μM 18264 (n=2).
(§5) • Summary of radioligand binding assays for three receptors. Data represent % inhibition of ligand binding in the presence of 10 μM 20068 (n=2).

5-HT2B = biological target: T1, 5-HT2B (Homo sapiens, UniProt P41595); experiment: Radioligand receptor binding assay (MDS Pharma); details: 10 μM compound, n=2
T1 construct: purchased MDS Pharma services 271700
T1 sequence (P41595 whole entry): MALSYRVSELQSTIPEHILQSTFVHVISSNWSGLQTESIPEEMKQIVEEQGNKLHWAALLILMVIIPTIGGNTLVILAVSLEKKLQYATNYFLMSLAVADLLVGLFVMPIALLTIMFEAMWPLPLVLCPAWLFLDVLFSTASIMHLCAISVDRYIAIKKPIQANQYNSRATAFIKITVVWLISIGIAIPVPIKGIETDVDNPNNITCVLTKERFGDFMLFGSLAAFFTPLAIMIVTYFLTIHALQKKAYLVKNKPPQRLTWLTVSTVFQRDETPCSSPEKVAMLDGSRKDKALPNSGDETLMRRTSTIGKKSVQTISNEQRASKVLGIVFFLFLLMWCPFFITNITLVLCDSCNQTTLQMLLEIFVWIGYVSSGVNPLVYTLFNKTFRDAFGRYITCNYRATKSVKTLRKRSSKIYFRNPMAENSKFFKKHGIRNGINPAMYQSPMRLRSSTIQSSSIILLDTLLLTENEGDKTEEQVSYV
Description: as §3, §4, §5

5-HT2C = biological target: T2, 5-HT2C (Homo sapiens, UniProt P28335); experiment: Radioligand receptor binding assay; details: 10 μM compound, n=2
T2 sequence (P28335 33-458): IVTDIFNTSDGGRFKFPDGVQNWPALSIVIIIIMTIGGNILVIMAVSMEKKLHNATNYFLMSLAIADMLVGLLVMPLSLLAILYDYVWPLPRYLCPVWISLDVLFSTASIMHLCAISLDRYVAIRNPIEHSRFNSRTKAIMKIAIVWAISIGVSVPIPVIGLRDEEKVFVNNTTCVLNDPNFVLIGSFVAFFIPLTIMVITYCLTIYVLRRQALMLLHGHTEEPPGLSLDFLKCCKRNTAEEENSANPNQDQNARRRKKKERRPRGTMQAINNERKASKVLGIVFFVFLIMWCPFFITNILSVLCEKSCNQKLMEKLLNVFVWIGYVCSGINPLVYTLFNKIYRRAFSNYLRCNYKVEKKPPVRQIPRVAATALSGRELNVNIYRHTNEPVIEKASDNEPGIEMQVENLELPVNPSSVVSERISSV

[3] = system: neonatal rat ventricular myocytes (NRVM); experiment: Total cellular protein (Coomassie dye-binding) in NRVM; format: cell-based; details: PE-stimulated (20 μM) NRVM, 0.1-3 μM compound, 48 hours
Description: NRVM culture. For preparations of neonatal rat ventricular myocytes (NRVMs), hearts were removed from 10-20 newborn (1-2 days old) Sprague-Dawley rats. Isolated ventricles were pooled, minced and dispersed by three 20-min incubations at 37° C. in Ads buffer (116 mM NaCl, 20 mM HEPES, 10 mM NaH2PO4, 5.5 mM glucose, 5 mM KCl, 0.8 mM MgSO4, pH 7.4) containing collagenase Type II (65 units/ml, Worthington) and pancreatin (0.6 mg/ml, GibcoBRL). Dispersed cells were applied to a discontinuous gradient of 40.5% and 58.5% (v/v) Percoll (Amersham Biosciences), centrifuged, and myocytes collected from the interface layer. […]
as §2, with “Cytotoxicity was quantitated by measuring release of adenylate kinase (AK) from cultured NRVM into culture medium (ToxiLight kit, Cambrex).” left out

[4] = system: neonatal rat ventricular myocytes (NRVM); experiment: Cell volume measurement (Coulter counter) of NRVM; format: cell-based; details: PE-stimulated (20 μM) NRVM, 48 hours
Description: as §1, §2

[5] = system: neonatal rat ventricular myocytes (NRVM); experiment: Cytotoxicity by adenylate kinase (AK) release from NRVM; format: cell-based
Description: Hypertrophy and toxicity assays. Primary hypertrophy endpoints for NRVM included quantitation of: ANF secretion, total cellular protein and cell volume. ANF in media supernatants was quantitated by competitive ELISA using a monoclonal anti-ANF antibody (Biodesign) and a biotinylated ANF peptide (Phoenix Peptide). Total cellular protein was quantitated by standard Coomassie dye-binding assay; cells were lysed in protein assay reagent (BioRad) and absorbance at A595 was measured after 1 hour. For cell volume measurements, NRVM cultured in 6-well dishes were harvested by treatment with trypsin (Cellgro). After recovery by centrifugation, cell pellets were washed in PBS, resuspended in 10 ml IsoFlow electrolyte solution (Beckman-Coulter) and analyzed with a Z2 Coulter Particle Counter and Size Analyzer (Beckman-Coulter). Cytotoxicity was quantitated by measuring release of adenylate kinase (AK) from cultured NRVM into culture medium (ToxiLight kit, Cambrex).

How did the “nuclear export of HDAC5-GFP” value (HDAC5; NRVM, two hours, 18264 1 μM, PE 20 μM) turn out when `CNC[C@H](O)c1cccc(O)c1` [PE, phenylephrine, reference compound] was run?
Its value is “moves to cytoplasm”.

With `O=C(c1ccc(F)cc1)C1CCN(CCn2c(=O)[nH]c3ccccc3c2=O)CC1` [ketanserin, reference compound] as the compound, how does the “attenuation of 18264-dependent induction of MCIP1 protein expression” value [1] read?
The value was “attenuated”.

And the “block of 18264-dependent ANF secretion” value [2]?
The value was “able to block”.

Which “% Inhibition of Binding” value (5-HT1) does the source give for `Nc1cc(-c2ccccc2)nc2ccccc12` [Compound 20068, 2-Phenyl-quinolin-4-ylamine] here?
The value was 19%.

What about the inhibition at 10 µM (5-HT2B) of the same compound?
The inhibition at 10 µM was 76%.

And the inhibition at 10 µM (5-HT2C)?
The inhibition at 10 µM was 63%.

And the “attenuation of 18264-dependent induction of MCIP1 protein expression” value [1]?
The value was “blocking 18264-dependent increases in MCIP1 protein in a dose-dependent manner”.

What about the “block of 18264-dependent ANF secretion” value [2] of the same compound?
The value was “effective at blocking”.

And the “attenuation of PE-dependent increase in total cellular protein” value [3]?
Its value is “attenuated”.

What about the “reduction of PE-dependent increase in cardiomyocyte cell volume” value ([4]; 3 μM compound) of the same compound?
The value was 49%.

What about the “attenuation of PE-dependent increase in cell volume (in words)” value ([4]; 0.1-3 μM compound) of the same compound?
The value was “attenuated”.

What about the “block of 18264-dependent nuclear export of HDAC5” value (HDAC5; NRVM pretreated with 20068 (2 μM) one hour before 18264 (1 μM)) of the same compound?
The value was “effective at blocking”.

And the “cytotoxicity (AK release), in words” value ([5]; presence or absence of hypertrophic stimuli, up to 3 micromolar, 48 hours)?
Its value is “no significant cytotoxicity”.

How did the “fold change in AK release versus unstimulated control” value ([5]; 0.1% Triton X-100, positive control) turn out when Triton X-100 [reference compound] was run?
The value was “approximately 6.5 fold”.
